In US20240108738A1, “BICYCLIC PEPTIDE LIGANDS SPECIFIC FOR NK CELLS” (Bicycle Tx Limited, priority 2021, published 2024) one finds Kd data, which are given here for 13 molecules.

Numbered stars: 1 amine (or outer) side, 2 acyl side, 3 side chain; on linkers, the order of the positions; unused ones are H or OH. Bridge positions count the residues as written; N and C are the ends. Square brackets hold non-standard residues; d marks the D form. Peptide text beside a SMILES is read from it. TATA = O=C(CC[*:1])N1CN(C(=O)CC[*:2])CN(C(=O)CC[*:3])C1; Cba = N[C@@H](CC1CCC1)C(=O)O; dNle = CCCC[C@@H](N)C(=O)O

The target in the test is T1, Fc-tagged human NKp46 (Homo sapiens, UniProt O76036).
T1 construct: purchased ACROBiosystems NC1-H5257
As to the kind of experiment: NKp46 SPR assay (Method 1 and/or Method 2). Format: binding. The settings on record: SPR Method 1 and/or Method 2, Table 3B. The method, then: SPR experiments were performed to determine ka (M^−1s^−1), kd (s^−1), KD (nM) values (where measurable) of various bicyclic peptides to immobilised NKp46.
For analysis of peptide binding to NKp46, a Biacore 3000 instrument was used with a Cytiva Streptavidin chip. Capture of the protein (recombinant human NKp46-Fc fusion biotinylated via Avi-tag) was carried out at 25° C. with HBS-N (10 mM HEPES, 0.15 M NaCl, pH 7.4) as the running buffer and biotinylated NKp46 was captured to a level of 400-800 RU using a dilution of protein to 0.2 μM in buffer. Buffer was then changed to PBS/0.05% Tween 20 and a dilution series of the peptides was prepared in this buffer with a final DMSO concentration of 0.5% with a top peptide concentration of 100 nM-5000 nM and 6 further 2 or 3-fold dilutions. The SPR analysis was run at 25° C. and a flow rate of 50 μl/min with 60 seconds association and 200-400 seconds dissociation time. Data were corrected for DMSO excluded volume effects. All data were double-referenced for blank injections and reference surface using standard processing procedures and data processing and kinetic fitting were performed using Scrubber software, version 2.0c (BioLogic Software). Data were fitted using simple 1:1 binding model allowing for mass transport effects where appropriate.
Peptides were tested against Fc-tagged human NKp46 (ACROBiosystems, cat no. NC1-H5257).
For analysis of peptide binding, a Biacore 8k+ instrument was used with a CM5 chip (Cytiva). All experiments were carried out at 25° C. Anti-human IgG (Fc) antibody (Cytiva) was immobilized on all flow cells by standard amine coupling chemistry. The running buffer was HBS-N(Cytiva, 10 mM HEPES, 0.15 M NaCl, pH 7.4) and the flow rate was 10 μL/min. The carboxymethyl dextran surface was activated with a 1:1 ratio of 0.4 M 1-ethyl-3-(3-dimethylaminopropyl) carbodiimide hydrochloride (EDC)/0.1 M N-hydroxy succinimide (NHS) (Cytiva) for 420s. […] Residual activated groups were blocked with a 420 s injection of 1 M ethanolamine (pH 8.5). The final surface density was 3000-5000 RU. Fc-tagged human NKp46 was diluted to 0.1 μM in HBS-N and was captured on flow cell 2 only of the sensor chip at a flow rate of 10 μL/min to 500-1000 RU. The buffer was then changed to PBS-P+(Cytiva) supplemented with 2% DMSO. […] The flow rate was 50 μL/min with 60 s association and 400 s dissociation. Data were corrected for DMSO volume exclusion effects. All data were double-referenced against blank injections and reference surface response using standard processing procedures. Data processing and kinetic fitting was performed using Biacore Insight Evaluation Software with Extended Screening and Characterization Extension (Cytiva). Data were fitted using steady state affinity 1:1 binding model to determine KD. Data were fitted using kinetic 1:1 binding model to determine kinetic constants where appropriate.

T1 sequence (O76036 22-304): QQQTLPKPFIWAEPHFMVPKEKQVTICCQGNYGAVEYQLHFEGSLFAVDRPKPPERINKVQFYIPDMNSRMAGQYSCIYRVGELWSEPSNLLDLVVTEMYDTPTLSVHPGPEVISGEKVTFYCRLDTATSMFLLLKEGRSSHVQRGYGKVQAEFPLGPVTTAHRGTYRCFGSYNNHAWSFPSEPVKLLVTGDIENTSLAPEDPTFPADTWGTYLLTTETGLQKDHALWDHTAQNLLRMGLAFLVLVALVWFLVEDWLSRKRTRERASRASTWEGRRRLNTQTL

`CSCC[C@@H]1NC(=O)[C@@H]2CSCCC(=O)N3CN(CN(C3)C(=O)CCSC[C@@H](C(=O)N[C@@H](C)C(N)=O)NC(=O)[C@H](C(C)C)NC(=O)[C@H](CCCCN)NC(=O)[C@H](C)NC(=O)[C@H]([C@@H](C)O)NC(=O)[C@H](CC(C)C)NC1=O)C(=O)CCSC[C@H](NC(=O)[C@H](C)N)C(=O)N[C@@H](CC(N)=O)C(=O)N[C@@H](CC(C)C)C(=O)N[C@@H](CCC(N)=O)C(=O)N[C@@H](C)C(=O)N1CCC[C@H]1C(=O)N2` [BCY18303, A-(SEQ ID NO: 67)-A] (H-ACNLQAPCMLTAKVCA-NH2; linker 2-8-15 via TATA) had a Kd of 2.75 µM. Under `CC(C)C[C@@H]1NC(=O)[C@H](Cc2ccc(O)cc2)NC(=O)[C@H](CC(=O)O)NC(=O)[C@@H]2CCCN2C(=O)[C@H](CC(C)C)NC(=O)[C@H](Cc2ccc(O)cc2)NC(=O)[C@@H](NC(=O)[C@H](C)N)CSCCC(=O)N2CN3CN(C2)C(=O)CCSC[C@@H](C(=O)N[C@@H](C)C(N)=O)NC(=O)[C@H](Cc2ccc(O)c(C(C)(C)C)c2)NC(=O)[C@H](CCC(=O)O)NC(=O)[C@H](CC(=O)O)NC(=O)CNC(=O)[C@H](CSCCC3=O)NC1=O` [BCY15652, A-(SEQ ID NO: 109)-A] stands 0.044 µM; under `CCCC[C@H]1NC(=O)[C@@H]2CSCCC(=O)N3CN(CN(C3)C(=O)CCSC[C@H](NC(C)=O)C(=O)N[C@@H](Cc3ccc(O)cc3)C(=O)N[C@@H](CC3CCC3)C(=O)N3CCC[C@H]3C(=O)N[C@@H](CC(=O)O)C(=O)N[C@@H](Cc3ccc(O)cc3)C(=O)N[C@@H](CC(C)C)C(=O)N2)C(=O)CCSC[C@@H](C(N)=O)NC(=O)[C@H](Cc2ccc(O)cc2)NC(=O)[C@H](CCC(=O)O)NC(=O)[C@H](CC(=O)O)NC1=O` [BCY19685, Ac-(SEQ ID NO: 149)] (Ac-CY[Cba]PDYLC[dNle]DEYC-NH2; linker 1-8-13 via TATA), 0.01 µM; under `CSCC[C@@H]1NC(=O)[C@@H]2CSCCC(=O)N3CN(CN(C3)C(=O)CCSC[C@H](NC(=O)[C@@H](N)CCCCN)C(=O)N[C@@H](CC(N)=O)C(=O)N[C@@H](CC(C)C)C(=O)N[C@@H](CCC(N)=O)C(=O)N[C@@H](C)C(=O)N3CCC[C@H]3C(=O)N2)C(=O)CCSC[C@@H](C(=O)N[C@@H](C)C(N)=O)NC(=O)[C@H](C(C)C)NC(=O)[C@H](CCCCN)NC(=O)CNC(=O)[C@H]([C@@H](C)O)NC(=O)[C@H](CC(C)C)NC1=O` [BCY19695, K-(SEQ ID NO: 4)-A] (H-KCNLQAPCMLTGKVCA-NH2; linker 2-8-15 via TATA; N-terminus assumed), 2.38 µM. For `CC[C@H](C)[C@@H]1NC(=O)CNC(=O)[C@H](Cc2cn(C)c3ccccc23)NC(=O)[C@H](CCC(N)=O)NC(=O)[C@@H]2CSCCC(=O)N3CN(CN(C3)C(=O)CCSC[C@@H](C(=O)N[C@@H](C)C(N)=O)NC1=O)C(=O)CCSC[C@H](NC(=O)[C@H](C)N)C(=O)N[C@@H](CC(=O)O)C(=O)N[C@@H](CC(C)C)C(=O)N[C@@H]([C@@H](C)O)C(=O)N[C@@H]([C@@H](C)O)C(=O)N[C@@H](Cc1c[nH]cn1)C(=O)N[C@@H](CC(N)=O)C(=O)N2` [BCY18288, A-(SEQ ID NO: 131)-A] the value was 0.354 µM. In the case of `CC(C)C[C@@H]1NC(=O)[C@H](CC(N)=O)NC(=O)[C@@H](NC(=O)[C@H](C)N)CSCCC(=O)N2CN3CN(C2)C(=O)CCSC[C@H](NC(=O)[C@@H]2CCCN2C(=O)[C@H](C)NC(=O)[C@H](CCC(N)=O)NC1=O)C(=O)N[C@@H](CC(C)C)C(=O)N[C@@H](Cc1c[nH]cn1)C(=O)N[C@@H]([C@@H](C)O)C(=O)NCC(=O)N[C@@H](CCCCN)C(=O)N[C@@H](C(C)C)C(=O)N[C@H](C(=O)N[C@@H](C)C(N)=O)CSCCC3=O` [BCY19712, A-(SEQ ID NO: 101)-A] (H-ACNLQAPCLHTGKVCA-NH2; linker 2-8-15 via TATA; C-terminus assumed), the Kd was 3.14 µM. On to `CSCC[C@@H]1NC(=O)[C@@H]2CSCCC(=O)N3CN(CN(C3)C(=O)CCSC[C@@H](C(=O)N[C@@H](C)C(N)=O)NC(=O)[C@H](C(C)C)NC(=O)[C@H](CCCCN)NC(=O)CNC(=O)[C@H]([C@@H](C)O)NC(=O)[C@H](CCC(N)=O)NC1=O)C(=O)CCSC[C@H](NC(=O)[C@H](C)N)C(=O)N[C@@H](CC(N)=O)C(=O)N[C@@H](CC(C)C)C(=O)N[C@@H](CCC(N)=O)C(=O)N[C@@H](CCC(N)=O)C(=O)N[C@@H](C)C(=O)N2` [BCY19713, A-(SEQ ID NO: 102)-A] (H-ACNLQQACMQTGKVCA-NH2; linker 2-8-15 via TATA; N-terminus assumed), for which the Kd was 1.83 µM. Under `CC(=O)N[C@@H]1CSCCC(=O)N2CN3CN(C2)C(=O)CCSC[C@H](NC(=O)[C@H](CC(C)C)NC(=O)[C@H](Cc2ccc(O)cc2)NC(=O)[C@H](CC(=O)O)NC(=O)[C@@H]2CCCN2C(=O)[C@H](CC2CCC2)NC(=O)[C@H](Cc2ccc(O)cc2)NC1=O)C(=O)N[C@H](C)C(=O)N[C@@H](CC(=O)O)C(=O)N[C@@H](CCC(=O)O)C(=O)N[C@@H](Cc1ccc(O)cc1)C(=O)N[C@H](C(N)=O)CSCCC3=O` [BCY19693, Ac-(SEQ ID NO: 157)] (Ac-[dC]Y[Cba]PDYLC[dA]DEYC-NH2; linker 1-8-13 via TATA; C-terminus assumed) stands 0.017 µM; under `CC[C@H](C)[C@@H]1NC(=O)CNC(=O)[C@H](Cc2c[nH]c3ccccc23)NC(=O)[C@H](C)NC(=O)[C@@H]2CSCCC(=O)N3CN(CN(C3)C(=O)CCSC[C@@H](C(=O)N[C@@H](C)C(N)=O)NC1=O)C(=O)CCSC[C@H](NC(=O)[C@H](C)N)C(=O)N[C@@H](CC(=O)O)C(=O)N[C@@H](CC(C)C)C(=O)N[C@@H]([C@@H](C)O)C(=O)N[C@@H]([C@@H](C)O)C(=O)N[C@@H](Cc1c[nH]cn1)C(=O)N[C@@H](CC(N)=O)C(=O)N2` [BCY18269, A-(SEQ ID NO: 119)-A] (H-ACDLTTHNCAWGICA-NH2; linker 2-9-14 via TATA), 1.64 µM.

With `CC[C@H](C)[C@@H]1NC(=O)[C@H]([C@@H](C)CC)NC(=O)[C@@H]2CCCN2C(=O)[C@H](Cc2c[nH]cn2)NC(=O)[C@H]([C@@H](C)O)NC(=O)[C@H](CC(N)=O)NC(=O)[C@@H]2CCCN2C(=O)[C@@H]2CSCCC(=O)N3CN(CN(C3)C(=O)CCSC[C@@H](C(=O)N[C@@H](C)C(N)=O)NC1=O)C(=O)CCSC[C@H](NC(=O)[C@H](C)N)C(=O)N[C@@H](CC(C)C)C(=O)N[C@@H](CC(C)C)C(=O)N[C@@H](Cc1c[nH]cn1)C(=O)N[C@@H](CC(=O)O)C(=O)N[C@@H](Cc1c[nH]cn1)C(=O)N2` [BCY15106, A-(SEQ ID NO: 8)-A] (H-ACLLHDHCPNTHPIICA-NH2; linker 2-8-16 via TATA), the Kd is 2.67 µM. For `CC[C@H](C)[C@@H]1NC(=O)CNC(=O)[C@H](Cc2c[nH]c3ccccc23)NC(=O)[C@H](CCC(N)=O)NC(=O)[C@@H]2CSCCC(=O)N3CN(CN(C3)C(=O)CCSC[C@H](N)C(=O)N[C@@H](CC(=O)O)C(=O)N[C@@H](CC(C)C)C(=O)N[C@@H]([C@@H](C)O)C(=O)N[C@@H]([C@@H](C)O)C(=O)N[C@@H](Cc3c[nH]cn3)C(=O)N[C@@H](CC(N)=O)C(=O)N2)C(=O)CCSC[C@@H](C(=O)N[C@@H](C)C(N)=O)NC1=O` [BCY19718, (SEQ ID NO: 11)-A] (H-CDLTTHNCQWGICA-NH2; linker 1-8-13 via TATA) the value was 1.11 µM; for `CSCC[C@@H]1NC(=O)[C@@H]2CSCCC(=O)N3CN(CN(C3)C(=O)CCSC[C@H](N)C(=O)N[C@@H](CC(N)=O)C(=O)N[C@@H](CC(C)C)C(=O)N[C@@H](CCC(N)=O)C(=O)N[C@@H](C)C(=O)N3CCC[C@H]3C(=O)N2)C(=O)CCSC[C@@H](C(N)=O)NC(=O)[C@H](C(C)C)NC(=O)[C@H](CCCCN)NC(=O)CNC(=O)[C@H]([C@@H](C)O)NC(=O)[C@H](CC(C)C)NC1=O` [BCY18295, (SEQ ID NO: 4)] (H-CNLQAPCMLTGKVC-NH2; linker 1-7-14 via TATA; C-terminus assumed), 6.41 µM. For `CC[C@H](C)[C@@H]1NC(=O)[C@@H]2CSCCC(=O)N3CN(CN(C3)C(=O)CCSC[C@@H](C(=O)N[C@@H](C)C(N)=O)NC(=O)[C@H](C(C)C)NC(=O)CNC(=O)[C@H](Cc3c[nH]c4ccccc34)NC1=O)C(=O)CCSC[C@H](NC(=O)[C@H](C)N)C(=O)N[C@@H](CC(=O)O)C(=O)N[C@@H](CC(C)C)C(=O)N[C@@H]([C@@H](C)O)C(=O)N[C@@H]([C@@H](C)O)C(=O)N[C@@H](Cc1c[nH]cn1)C(=O)N[C@@H](CC(N)=O)C(=O)N2` [BCY14458, A-(SEQ ID NO: 104)-A] (H-ACDLTTHNCIWGVCA-NH2; linker 2-9-14 via TATA; C-terminus assumed) the value was 1.26 µM.
